Source: ChEMBL document CHEMBL1201862, “PubChem BioAssay data set” (2004)
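Cultured in 96-well plates, cells were exposed to test compound for 48 hours across five concentrations. At the GI50, growth is halved.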 Active and inactive are the calls of the source. Cut-off read from the data, not from the text of the source: active = GI50 up to about 1.1 µM and inactive = higher.

What was measured:
Experiment in all cases: NCI-60 cell line screen, 48 h
[1] = tested on: NCI-H226
[2] = tested on: OVCAR-5
[3] = tested on: RPMI-8226
[4] = tested on: EKVX
[5] = tested on: HCT-15
[6] = tested on: UACC-62
[7] = tested on: SK-MEL-5
[8] = tested on: PC-3
[9] = tested on: HT-29
[10] = tested on: MOLT-4
[11] = tested on: SK-MEL-28
[12] = tested on: KM12
[13] = tested on: ACHN
[14] = tested on: HL-60
[15] = tested on: OVCAR-8
[16] = tested on: SF-268
[17] = tested on: MDA-N
[18] = tested on: K562
[19] = tested on: OVCAR-4
[20] = tested on: SR

Row | SMILES | GI50 [1] | GI50 [2] | GI50 [3] | GI50 [4] | GI50 [5] [µM] | GI50 [6] | GI50 [7] | GI50 [8] | GI50 [9] | GI50 [10] | GI50 [11] | GI50 [12] | GI50 [13] | GI50 [14] | GI50 [15] | GI50 [16] | GI50 [17] | GI50 [18] | GI50 [19] | GI50 [20]
1 | CC(C)(Oc1ccc(Cl)cc1)C(=O)N(C(=O)N1CCCCC1)c1ccccc1 | 17.6 µM (inactive) | 12 µM (inactive) | 7.55 µM (inactive) | 2.45 µM (inactive) | 6.28 | 13.2 µM (inactive) | 10.4 µM (inactive) | 3.4 µM (inactive) | 8.34 µM (inactive) | 3.41 µM (inactive) | 15.2 µM (inactive) | 5.87 µM (inactive) | 14.9 µM (inactive) | 2.16 µM (inactive) | 14.1 µM (inactive) | 20.1 µM (inactive) | 24.5 µM (inactive) | 8.17 µM (inactive) | – | –
2 | CCNCCNC(=O)c1ccc(Br)cc1 | > 100 µM (inactive) | > 100 µM (inactive) | > 100 µM (inactive) | > 100 µM (inactive) | > 100 | > 100 µM (inactive) | > 100 µM (inactive) | > 100 µM (inactive) | > 100 µM (inactive) | > 100 µM (inactive) | > 100 µM (inactive) | > 100 µM (inactive) | > 100 µM (inactive) | > 100 µM (inactive) | > 100 µM (inactive) | > 100 µM (inactive) | – | > 100 µM (inactive) | > 100 µM (inactive) | > 100 µM (inactive)
3 | CC(C)(/N=N/C(C)(C)C1=NCCN1)C1=NCCN1 | > 100 µM (inactive) | > 100 µM (inactive) | – | > 100 µM (inactive) | > 100 | > 100 µM (inactive) | > 100 µM (inactive) | > 100 µM (inactive) | > 100 µM (inactive) | > 100 µM (inactive) | > 100 µM (inactive) | > 100 µM (inactive) | > 100 µM (inactive) | – | > 100 µM (inactive) | > 100 µM (inactive) | > 100 µM (inactive) | > 56.5 µM (inactive) | > 100 µM (inactive) | –
4 | CO/N=C(\C(=O)Nn1cn[n+](CC(=O)[O-])c1)c1csc(N)n1 | – | – | > 10 µM (inactive) | > 10 µM (inactive) | > 10 | > 10 µM (inactive) | > 10 µM (inactive) | – | > 10 µM (inactive) | > 10 µM (inactive) | > 10 µM (inactive) | > 10 µM (inactive) | > 10 µM (inactive) | > 10 µM (inactive) | > 10 µM (inactive) | > 10 µM (inactive) | > 10 µM (inactive) | > 10 µM (inactive) | > 10 µM (inactive) | > 10 µM (inactive)
5 | CCc1ccccc1NC(=O)C(C#N)C1=C(Cl)C(=O)c2ccccc2C1=O (centres undefined) | 15.3 µM (inactive) | 18.6 µM (inactive) | 12.4 µM (inactive) | 17.1 µM (inactive) | 14.7 | 16.8 µM (inactive) | 15.3 µM (inactive) | 14.6 µM (inactive) | 14.1 µM (inactive) | 8.73 µM (inactive) | 16.9 µM (inactive) | 13.5 µM (inactive) | 15.2 µM (inactive) | 26.2 µM (inactive) | 17.9 µM (inactive) | 21.7 µM (inactive) | – | 8.04 µM (inactive) | 13.6 µM (inactive) | 21.6 µM (inactive)
6 | Nc1ccc(/N=N\c2ccc(-c3ccc(O)cc3)cc2)c2ccc(S(=O)(=O)O)cc12 | > 100 µM (inactive) | > 100 µM (inactive) | > 100 µM (inactive) | > 100 µM (inactive) | > 100 | > 100 µM (inactive) | > 100 µM (inactive) | > 100 µM (inactive) | > 100 µM (inactive) | > 100 µM (inactive) | > 100 µM (inactive) | > 100 µM (inactive) | > 100 µM (inactive) | > 100 µM (inactive) | > 100 µM (inactive) | > 100 µM (inactive) | – | > 100 µM (inactive) | > 100 µM (inactive) | > 100 µM (inactive)
